# Source: ChEMBL document CHEMBL2177025, “Chemical proteomics-based analysis of off-target binding profiles for rosiglitazone and pioglitazone: clues for assessing potential for cardiotoxicity” (J Med Chem, 2012)
# Calls of active or inactive are those of the source. No cut-off for these calls is given here.
# Columns and labels:
# [1] = molecular target: Dynactin subunit 1 (Mus musculus) (UniProt O08788); experiment: Binding affinity to mouse dynactin-1 by chromatographic analysis
# [2] = molecular target: Trace amine-associated receptor 7b (Mus musculus) (UniProt Q5QD11); experiment: Binding affinity to mouse trace amine-associated receptor 7b by chromatographic analysis
# [3] = molecular target: L-lactate dehydrogenase B chain (Rattus norvegicus) (UniProt P42123); experiment: Binding affinity to L-lactate dehydrogenase B chain in Sprague-Dawley rat heart homogenate after 15 mins by chromatographic analysis relative to rosiglitazone; assay type: tissue-based
# [4] = molecular target: Serine/threonine-protein kinase MAK (Mus musculus) (UniProt Q04859); experiment: Binding affinity to mouse serine/threonine-protein kinase MAK by chromatographic analysis
# [5] = molecular target: Glyceraldehyde-3-phosphate dehydrogenase (Rattus norvegicus) (UniProt P04797); experiment: Binding affinity to glyceraldehyde 3-phosphate dehydrogenase in Sprague-Dawley rat heart homogenate after 15 mins by chromatographic analysis; assay type: tissue-based
# [6] = molecular target: Protein kinase C and casein kinase substrate in neurons protein 2 (Mus musculus) (UniProt Q9WVE8); experiment: Binding affinity to mouse protein kinase C and casein kinase substrate in neurons protein 2 by chromatographic analysis
# [7] = molecular target: H(+)/Cl(-) exchange transporter 6 (Mus musculus) (UniProt O35454); experiment: Binding affinity to mouse chloride channel protein 6 after 15 mins by chromatographic analysis
# [8] = molecular target: Ras/Rap GTPase-activating protein SynGAP (Rattus norvegicus) (UniProt Q9QUH6); experiment: Binding affinity to RasGTPase-activating protein SynGAP in Sprague-Dawley rat heart homogenate after 15 mins by chromatographic analysis relative to pioglitazone; assay type: tissue-based
# [9] = molecular target: PX domain-containing protein kinase-like protein (Rattus norvegicus) (UniProt Q4FZZ1); experiment: Binding affinity to PX domain-containing protein kinase-like protein in Sprague-Dawley rat heart homogenate after 15 mins by chromatographic analysis relative to pioglitazone; assay type: tissue-based
# [10] = molecular target: T1, Cardiotrophin-like cytokine factor 1 (Mus musculus) (UniProt Q9QZM3); experiment: Binding affinity to mouse cardiotrophin-like cytokine factor 1 by chromatographic analysis
# T1 sequence (whole entry): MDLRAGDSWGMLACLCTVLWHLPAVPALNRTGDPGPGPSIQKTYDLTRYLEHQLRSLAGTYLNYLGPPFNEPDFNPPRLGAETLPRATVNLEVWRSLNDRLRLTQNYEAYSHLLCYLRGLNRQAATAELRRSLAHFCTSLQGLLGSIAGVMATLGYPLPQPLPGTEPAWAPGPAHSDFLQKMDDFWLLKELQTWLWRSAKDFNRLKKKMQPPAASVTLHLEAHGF
# [11] = molecular target: ATP synthase F(1) complex catalytic subunit beta, mitochondrial (Rattus norvegicus) (UniProt P10719); experiment: Binding affinity to mitochondrial ATP synthase beta chain in Sprague-Dawley rat heart homogenate after 15 mins by chromatographic analysis; assay type: tissue-based
# [12] = molecular target: Protein-tyrosine kinase 2-beta (Rattus norvegicus) (UniProt P70600); experiment: Binding affinity to focal adhesion kinase 2 in Sprague-Dawley rat heart homogenate after 15 mins by chromatographic analysis; assay type: tissue-based
# [13] = molecular target: 26S proteasome non-ATPase regulatory subunit 1 (Rattus norvegicus) (UniProt O88761); experiment: Binding affinity to 26S proteasome non-ATPase regulatory subunit 1 in Sprague-Dawley rat heart homogenate after 15 mins by chromatographic analysis; assay type: tissue-based
# [14] = molecular target: Multiple PDZ domain protein (Mus musculus) (UniProt Q8VBX6); experiment: Binding affinity to mouse multiple PDZ domain protein by chromatographic analysis
# [15] = molecular target: Serine/threonine-protein kinase WNK1 (Mus musculus) (UniProt P83741); experiment: Binding affinity to mouse serine/threonine-protein kinase WNK1 by chromatographic analysis relative to rosiglitazone
# Dystonin (Mus musculus) = Dystonin (Mus musculus) (UniProt Q91ZU6); experiment: Binding affinity to mouse bullous pemphigoid antigen 1 by chromatographic analysis
# [16] = molecular target: Neurofibromin (Mus musculus) (UniProt Q04690); experiment: Binding affinity to mouse neurofibromin by chromatographic analysis relative to pioglitazone
# [17] = molecular target: ATP synthase F(1) complex subunit alpha, mitochondrial (Rattus norvegicus) (UniProt P15999); experiment: Binding affinity to mitochondrial ATP synthase alpha chain in Sprague-Dawley rat heart homogenate after 15 mins by chromatographic analysis; assay type: tissue-based
# [18] = molecular target: T2, Dihydrolipoyl dehydrogenase, mitochondrial (Mus musculus) (UniProt O08749); experiment: Binding affinity to mouse mitochondrial dihydrolipoyl dehydrogenase by chromatographic analysis relative to rosiglitazone
# T2 sequence (whole entry): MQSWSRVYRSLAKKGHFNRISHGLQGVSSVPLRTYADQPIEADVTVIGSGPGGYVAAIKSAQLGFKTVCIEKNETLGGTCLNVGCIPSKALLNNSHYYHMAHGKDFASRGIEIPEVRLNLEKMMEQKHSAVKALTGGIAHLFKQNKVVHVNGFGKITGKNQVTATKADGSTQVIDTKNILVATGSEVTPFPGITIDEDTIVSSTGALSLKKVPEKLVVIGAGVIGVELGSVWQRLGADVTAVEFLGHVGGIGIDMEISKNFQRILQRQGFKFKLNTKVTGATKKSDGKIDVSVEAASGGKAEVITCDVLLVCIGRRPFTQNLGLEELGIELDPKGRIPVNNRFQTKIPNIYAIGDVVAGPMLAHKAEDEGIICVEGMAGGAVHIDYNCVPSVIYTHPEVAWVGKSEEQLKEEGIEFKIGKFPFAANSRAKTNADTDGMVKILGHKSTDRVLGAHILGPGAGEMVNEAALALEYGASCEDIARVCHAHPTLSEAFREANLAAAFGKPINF
# [19] = molecular target: Endoplasmic reticulum membrane adapter protein XK (Mus musculus) (UniProt Q9QXY7); experiment: Binding affinity to mouse membrane transport protein XK by chromatographic analysis relative to pioglitazone
# [20] = molecular target: Neuronal acetylcholine receptor subunit alpha-10 (Rattus norvegicus) (UniProt Q9JLB5); experiment: Binding affinity to neuronal acetylcholine receptor subunit alpha-10 in Sprague-Dawley rat heart homogenate after 15 mins by chromatographic analysis; assay type: tissue-based
# [21] = molecular target: Afadin- and alpha-actinin-binding protein (Rattus norvegicus) (UniProt Q8CGZ2); experiment: Binding affinity to afadin- and alpha-actinin-binding protein in Sprague-Dawley rat heart homogenate after 15 mins by chromatographic analysis; assay type: tissue-based
# Norrin (Mus musculus) = Norrin (Mus musculus) (UniProt P48744); experiment: Binding affinity to mouse norrin precursor by chromatographic analysis
# [22] = molecular target: Inactive tyrosine-protein kinase transmembrane receptor ROR1 (Mus musculus) (UniProt Q9Z139); experiment: Binding affinity to mouse tyrosine-protein kinase transmembrane receptor ROR1 by chromatographic analysis
# [23] = molecular target: Kalirin (Rattus norvegicus) (UniProt P97924); experiment: Binding affinity to Huntingtin-associated protein-interacting protein in Sprague-Dawley rat heart homogenate after 15 mins by chromatographic analysis; assay type: tissue-based
# L-lactate dehydrogenase B chain (Rattus norvegicus), sequence (P42123 whole entry): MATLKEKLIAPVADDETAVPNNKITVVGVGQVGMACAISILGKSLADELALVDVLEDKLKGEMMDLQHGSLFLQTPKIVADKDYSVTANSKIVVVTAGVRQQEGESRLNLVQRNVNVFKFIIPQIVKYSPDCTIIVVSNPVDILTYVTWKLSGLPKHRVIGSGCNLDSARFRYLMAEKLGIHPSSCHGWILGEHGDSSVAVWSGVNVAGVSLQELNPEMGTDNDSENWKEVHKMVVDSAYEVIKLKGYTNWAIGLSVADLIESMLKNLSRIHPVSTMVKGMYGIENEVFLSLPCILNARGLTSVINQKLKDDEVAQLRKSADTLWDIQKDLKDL
# Dynactin subunit 1 (Mus musculus), sequence (O08788 whole entry): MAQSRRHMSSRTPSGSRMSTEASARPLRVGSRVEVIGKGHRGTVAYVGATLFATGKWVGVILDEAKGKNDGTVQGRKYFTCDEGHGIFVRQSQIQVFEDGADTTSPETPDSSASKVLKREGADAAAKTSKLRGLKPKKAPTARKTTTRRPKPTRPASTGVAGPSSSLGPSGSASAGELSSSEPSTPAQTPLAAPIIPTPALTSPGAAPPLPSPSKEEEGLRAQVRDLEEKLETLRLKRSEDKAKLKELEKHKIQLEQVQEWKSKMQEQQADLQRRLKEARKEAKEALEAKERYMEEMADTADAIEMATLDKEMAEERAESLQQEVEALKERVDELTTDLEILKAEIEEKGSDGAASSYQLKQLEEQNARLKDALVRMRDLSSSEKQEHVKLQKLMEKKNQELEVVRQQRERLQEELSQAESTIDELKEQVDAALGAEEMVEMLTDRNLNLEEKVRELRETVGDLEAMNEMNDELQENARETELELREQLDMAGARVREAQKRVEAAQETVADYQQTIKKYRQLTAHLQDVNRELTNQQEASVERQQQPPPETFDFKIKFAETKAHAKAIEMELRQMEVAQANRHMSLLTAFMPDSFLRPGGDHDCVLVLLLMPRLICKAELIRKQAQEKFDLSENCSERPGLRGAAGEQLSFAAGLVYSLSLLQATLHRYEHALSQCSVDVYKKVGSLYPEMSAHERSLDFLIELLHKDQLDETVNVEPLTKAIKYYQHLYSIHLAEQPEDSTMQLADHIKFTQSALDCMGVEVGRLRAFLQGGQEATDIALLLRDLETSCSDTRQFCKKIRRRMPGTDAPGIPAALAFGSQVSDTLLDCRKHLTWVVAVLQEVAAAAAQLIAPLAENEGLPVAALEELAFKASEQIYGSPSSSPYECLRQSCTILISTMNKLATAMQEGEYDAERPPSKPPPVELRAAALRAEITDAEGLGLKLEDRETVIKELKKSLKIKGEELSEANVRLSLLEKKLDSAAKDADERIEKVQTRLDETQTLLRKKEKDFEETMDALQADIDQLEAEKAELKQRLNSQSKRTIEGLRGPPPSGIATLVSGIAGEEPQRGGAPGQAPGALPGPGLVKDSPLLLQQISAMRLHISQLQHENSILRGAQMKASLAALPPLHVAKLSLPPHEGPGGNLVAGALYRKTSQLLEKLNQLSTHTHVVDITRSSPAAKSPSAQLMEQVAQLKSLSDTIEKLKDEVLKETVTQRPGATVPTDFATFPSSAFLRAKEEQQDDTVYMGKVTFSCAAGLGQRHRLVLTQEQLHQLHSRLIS
# PX domain-containing protein kinase-like protein (Rattus norvegicus), sequence (Q4FZZ1 whole entry, the tested form may be a part): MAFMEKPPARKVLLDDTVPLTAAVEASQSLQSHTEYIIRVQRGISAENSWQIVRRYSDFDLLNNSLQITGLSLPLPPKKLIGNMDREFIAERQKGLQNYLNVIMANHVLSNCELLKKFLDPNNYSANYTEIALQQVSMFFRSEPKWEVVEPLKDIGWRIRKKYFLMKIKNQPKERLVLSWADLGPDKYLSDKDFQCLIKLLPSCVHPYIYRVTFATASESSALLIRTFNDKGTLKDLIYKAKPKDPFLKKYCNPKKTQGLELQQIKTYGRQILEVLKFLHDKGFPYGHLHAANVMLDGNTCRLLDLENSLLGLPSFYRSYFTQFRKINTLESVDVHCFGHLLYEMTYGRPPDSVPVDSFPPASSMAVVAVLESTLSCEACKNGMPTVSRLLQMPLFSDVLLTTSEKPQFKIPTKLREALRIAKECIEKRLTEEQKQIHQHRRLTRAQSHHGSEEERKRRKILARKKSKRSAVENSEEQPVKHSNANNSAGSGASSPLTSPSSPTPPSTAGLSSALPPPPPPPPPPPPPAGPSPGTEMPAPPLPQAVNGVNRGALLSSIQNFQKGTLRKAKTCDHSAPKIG
# 26S proteasome non-ATPase regulatory subunit 1 (Rattus norvegicus), sequence (O88761 whole entry, the tested form may be a part): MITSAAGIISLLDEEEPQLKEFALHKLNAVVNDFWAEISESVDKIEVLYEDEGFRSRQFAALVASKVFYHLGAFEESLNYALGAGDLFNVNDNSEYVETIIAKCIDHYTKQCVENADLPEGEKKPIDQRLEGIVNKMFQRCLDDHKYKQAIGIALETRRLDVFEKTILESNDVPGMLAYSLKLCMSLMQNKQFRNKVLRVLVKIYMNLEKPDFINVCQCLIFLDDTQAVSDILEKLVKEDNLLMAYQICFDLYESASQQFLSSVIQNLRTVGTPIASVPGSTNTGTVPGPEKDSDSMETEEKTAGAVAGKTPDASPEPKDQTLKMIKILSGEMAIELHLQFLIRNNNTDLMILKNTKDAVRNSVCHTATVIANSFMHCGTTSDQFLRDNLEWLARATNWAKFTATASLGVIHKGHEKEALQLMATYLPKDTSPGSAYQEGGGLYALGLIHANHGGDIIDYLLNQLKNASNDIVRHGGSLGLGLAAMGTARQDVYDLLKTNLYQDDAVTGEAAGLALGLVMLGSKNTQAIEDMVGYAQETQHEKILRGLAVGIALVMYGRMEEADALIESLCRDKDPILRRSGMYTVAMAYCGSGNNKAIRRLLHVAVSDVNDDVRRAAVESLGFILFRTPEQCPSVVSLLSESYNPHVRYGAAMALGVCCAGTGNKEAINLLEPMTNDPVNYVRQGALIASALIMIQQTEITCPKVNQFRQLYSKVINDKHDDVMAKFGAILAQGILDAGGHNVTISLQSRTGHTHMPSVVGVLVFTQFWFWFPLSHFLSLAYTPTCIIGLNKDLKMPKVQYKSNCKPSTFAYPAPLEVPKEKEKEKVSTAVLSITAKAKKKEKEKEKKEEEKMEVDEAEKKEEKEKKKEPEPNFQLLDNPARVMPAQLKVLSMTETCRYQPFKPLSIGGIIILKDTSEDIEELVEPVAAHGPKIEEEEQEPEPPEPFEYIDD
# Serine/threonine-protein kinase MAK (Mus musculus), sequence (Q04859 whole entry): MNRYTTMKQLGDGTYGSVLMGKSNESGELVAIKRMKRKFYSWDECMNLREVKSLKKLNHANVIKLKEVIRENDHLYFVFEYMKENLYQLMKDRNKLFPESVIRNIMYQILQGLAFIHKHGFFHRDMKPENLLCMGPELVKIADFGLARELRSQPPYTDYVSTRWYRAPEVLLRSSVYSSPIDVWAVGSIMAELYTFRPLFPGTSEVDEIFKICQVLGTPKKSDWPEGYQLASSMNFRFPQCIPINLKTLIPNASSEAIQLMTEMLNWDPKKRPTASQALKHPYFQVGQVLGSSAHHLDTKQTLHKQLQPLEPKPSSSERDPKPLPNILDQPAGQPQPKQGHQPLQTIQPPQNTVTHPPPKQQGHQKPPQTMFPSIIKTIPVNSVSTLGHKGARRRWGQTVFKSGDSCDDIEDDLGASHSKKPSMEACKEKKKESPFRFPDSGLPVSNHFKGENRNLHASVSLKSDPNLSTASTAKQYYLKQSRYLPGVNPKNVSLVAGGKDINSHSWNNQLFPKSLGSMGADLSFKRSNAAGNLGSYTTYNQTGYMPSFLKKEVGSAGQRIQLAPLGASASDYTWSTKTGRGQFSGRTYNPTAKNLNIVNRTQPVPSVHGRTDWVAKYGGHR
# Glyceraldehyde-3-phosphate dehydrogenase (Rattus norvegicus), sequence (P04797 whole entry): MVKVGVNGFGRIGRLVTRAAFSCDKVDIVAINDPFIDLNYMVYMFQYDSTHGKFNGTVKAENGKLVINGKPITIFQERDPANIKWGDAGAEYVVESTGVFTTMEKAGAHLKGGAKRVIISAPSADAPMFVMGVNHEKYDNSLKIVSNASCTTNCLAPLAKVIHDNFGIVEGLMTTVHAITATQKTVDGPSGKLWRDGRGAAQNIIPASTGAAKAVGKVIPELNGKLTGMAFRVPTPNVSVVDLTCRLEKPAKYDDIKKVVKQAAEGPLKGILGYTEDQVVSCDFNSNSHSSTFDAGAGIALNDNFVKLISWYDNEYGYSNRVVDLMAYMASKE
# ATP synthase F(1) complex catalytic subunit beta, mitochondrial (Rattus norvegicus), sequence (P10719 whole entry, one chain of several): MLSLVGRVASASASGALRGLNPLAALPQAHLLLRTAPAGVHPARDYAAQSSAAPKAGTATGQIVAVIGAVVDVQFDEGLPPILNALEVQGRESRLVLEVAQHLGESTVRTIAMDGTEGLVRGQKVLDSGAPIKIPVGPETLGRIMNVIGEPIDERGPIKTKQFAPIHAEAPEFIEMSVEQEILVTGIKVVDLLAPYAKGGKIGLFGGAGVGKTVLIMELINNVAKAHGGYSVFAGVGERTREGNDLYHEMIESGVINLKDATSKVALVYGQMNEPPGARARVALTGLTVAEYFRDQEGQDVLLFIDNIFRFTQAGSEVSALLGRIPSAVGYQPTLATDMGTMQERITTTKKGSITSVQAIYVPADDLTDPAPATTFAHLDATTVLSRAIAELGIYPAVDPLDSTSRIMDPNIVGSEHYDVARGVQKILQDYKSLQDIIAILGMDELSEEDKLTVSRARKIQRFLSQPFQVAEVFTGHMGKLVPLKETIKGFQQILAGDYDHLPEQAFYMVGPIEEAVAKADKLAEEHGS
# Trace amine-associated receptor 7b (Mus musculus), sequence (Q5QD11 whole entry): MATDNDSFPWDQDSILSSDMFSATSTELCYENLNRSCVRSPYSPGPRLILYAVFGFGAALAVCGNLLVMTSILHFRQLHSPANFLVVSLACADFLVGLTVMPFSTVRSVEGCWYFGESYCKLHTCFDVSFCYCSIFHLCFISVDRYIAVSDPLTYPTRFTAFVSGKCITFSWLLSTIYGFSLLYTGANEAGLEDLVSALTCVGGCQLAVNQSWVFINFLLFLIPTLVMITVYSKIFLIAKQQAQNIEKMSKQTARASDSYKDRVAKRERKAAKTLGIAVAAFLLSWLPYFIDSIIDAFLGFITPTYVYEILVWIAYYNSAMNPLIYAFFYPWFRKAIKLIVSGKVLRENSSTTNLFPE
Activity [1],Activity [2],Activity [3],Activity [4],Activity [5],Activity [6],Activity [7],Activity [10],Activity [11],Activity [12],Activity [13],Activity [14],Activity (Dystonin (Mus musculus)),Activity [17],Activity [18],Activity [20],Activity [21],Activity (Norrin (Mus musculus)),Activity [22],Activity [23],SMILES,further results
Active,Active,Active,Active,Active,inactive,Active,Active,Active,Active,Active,Active,Active,Active,Active,Active,Active,inactive,Active,Active,CCc1ccc(CCOc2ccc(CC3SC(=O)NC3=O)cc2)nc1 (configuration not stated),fold change (FC) [3]: 2.26; Activity [8]: Active; Activity [9]: Active; fold change (FC) [15]: 3.24; Activity [16]: Active; fold change (FC) [18]: 1.88; Activity [19]: Active
Active,inactive,Active,Active,Active,Active,Active,Active,Active,inactive,Active,Active,Active,Active,Active,Active,Active,Active,Active,Active,CN(CCOc1ccc(CC2SC(=O)NC2=O)cc1)c1ccccn1 (configuration not stated),fold change (FC) [8]: 2.12; fold change (FC) [9]: 2.64; Activity [15]: Active; fold change (FC) [16]: 3.1; fold change (FC) [19]: 1.88
